Data: ChEMBL document CHEMBL4118221, “Vinyldiaminotriazine-acridine conjugate as G-quadruplex alkylating agent” (Bioorg Med Chem, 2018)
Active and inactive are the calls of the source. No cut-off for these calls is given here.

Key:
[1] = Solubility of the compound in water; assay type: physicochemical; conditions: buffer
Quadruplex DNA [2] = assay: Alkylating activity at 5'-FAM-labeled human telomeric G-quadruplex DNA in K+ buffer at 100 uM measured up to 72 hrs by PAGE analysis; assay type: functional
[3] = Alkylating activity at 5'-FAM-labeled T-T mismatched duplex DNA (unknown origin) in MES buffer at 100 uM measured up to 72 hrs by PAGE analysis; assay type: functional
Quadruplex DNA [4] = assay: Alkylating activity at 5'-FAM-labeled human telomeric G-quadruplex DNA at 100 uM in Na+ buffer measured up to 72 hrs by PAGE analysis; assay type: functional
dsDNA = assay: Alkylating activity at 5'-FAM-labeled T-A full-matched duplex DNA (unknown origin) in MES buffer at 100 uM measured up to 72 hrs by PAGE analysis; assay type: functional
Quadruplex DNA [5] = assay: Binding affinity to human telomeric G-quadruplex DNA in Na+ buffer at 0.2 uM after 15 mins by spectrofluorometric method; assay type: nucleic-acid assay
Quadruplex DNA [6] = assay: Binding affinity to human telomeric G-quadruplex DNA in K+ buffer at 0.2 uM after 15 mins by spectrofluorometric method; assay type: nucleic-acid assay
[7] = Binding affinity to T-T mismatched duplex DNA (unknown origin) in MES buffer at 0.2 uM after 15 mins by spectrofluorometric method
[8] = Binding affinity to T-T mismatched duplex DNA (unknown origin) by isothermal calorimetric titration method
Quadruplex DNA [9] = assay: Effect on conformation of human telomeric G-quadruplex DNA in K+ buffer by circular dichroism spectral analysis; assay type: nucleic-acid assay
Quadruplex DNA [10] = assay: Alkylating activity at 19T base of human telomeric G-quadruplex DNA in Na+ buffer at 100 uM using 9-mer primer after 72 hrs by primer extension method; assay type: functional
Quadruplex DNA [11] = assay: Alkylating activity at 13T base of human telomeric G-quadruplex DNA in K+ buffer at 100 uM using 9-mer primer after 72 hrs by primer extension method; assay type: functional
Quadruplex DNA [12] = assay: Alkylating activity at 18T base of human telomeric G-quadruplex DNA in K+ buffer at 100 uM using 9-mer primer after 72 hrs by primer extension method; assay type: functional
Quadruplex DNA [13] = assay: Alkylating activity at 14G base of human telomeric G-quadruplex DNA in K+ buffer at 100 uM using 9-mer primer after 72 hrs by primer extension method; assay type: functional
Quadruplex DNA [14] = assay: Alkylating activity at T bases of human telomeric G-quadruplex DNA in K+ buffer at 100 uM using 11-mer primer after 72 hrs by primer extension method; assay type: functional
Quadruplex DNA [15] = assay: Effect on conformation of human telomeric G-quadruplex DNA in Na+ buffer by circular dichroism spectral analysis; assay type: nucleic-acid assay
Quadruplex DNA [16] = assay: Alkylating activity at 25T base of human telomeric G-quadruplex DNA in Na+ buffer at 100 uM using 9-mer primer after 72 hrs by primer extension method; assay type: functional
Quadruplex DNA [17] = assay: Alkylating activity at 19T base of human telomeric G-quadruplex DNA in K+ buffer at 100 uM using 9-mer primer after 72 hrs by primer extension method; assay type: functional
Quadruplex DNA [18] = assay: Alkylating activity at 12T base of human telomeric G-quadruplex DNA in Na+ buffer at 100 uM using 9-mer primer after 72 hrs by primer extension method; assay type: functional
Quadruplex DNA [19] = assay: Alkylating activity at 18T base of human telomeric G-quadruplex DNA in Na+ buffer at 100 uM using 9-mer primer after 72 hrs by primer extension method; assay type: functional
Quadruplex DNA [20] = assay: Alkylating activity at T bases of human telomeric G-quadruplex DNA in Na+ buffer at 100 uM using 11-mer primer after 72 hrs by primer extension method; assay type: functional
Quadruplex DNA [21] = assay: Alkylating activity at 24T base of human telomeric G-quadruplex DNA in Na+ buffer at 100 uM using 9-mer primer after 72 hrs by primer extension method; assay type: functional
Quadruplex DNA [22] = assay: Alkylating activity at 13T base of human telomeric G-quadruplex DNA in Na+ buffer at 100 uM using 9-mer primer after 72 hrs by primer extension method; assay type: functional
Quadruplex DNA [23] = assay: Alkylating activity at human telomeric G-quadruplex DNA in K+ buffer assessed as thermal stabilization by measuring change in melting temperature at 1.5 uM by circular dichroism spectral analysis; assay type: functional
Quadruplex DNA [24] = assay: Alkylating activity at 14G base of human telomeric G-quadruplex DNA in Na+ buffer at 100 uM using 9-mer primer after 72 hrs by primer extension method; assay type: functional
Quadruplex DNA [25] = assay: Alkylating activity at human telomeric G-quadruplex DNA in Na+ buffer assessed as thermal stabilization by measuring change in melting temperature at 1.5 uM by circular dichroism spectral analysis; assay type: functional
Quadruplex DNA [26] = assay: Alkylating activity at T base of human telomeric G-quadruplex DNA in K+ buffer assessed as thymidine-compound adduct formation at 100 uM using 9-mer primer after 72 hrs by alkaline phosphatase and phosphodiesterase-1 enzymatic hydrolysis assay based ESI-MS analysis; assay type: functional
Quadruplex DNA [27] = assay: Alkylating activity at 12T base of human telomeric G-quadruplex DNA in K+ buffer at 100 uM using 9-mer primer after 72 hrs by primer extension method; assay type: functional
Quadruplex DNA [28] = assay: Binding affinity to human telomeric G-quadruplex DNA in Na+ buffer at 9.4 uM UV-vis titration analysis; assay type: nucleic-acid assay
Quadruplex DNA [29] = assay: Binding affinity to human telomeric G-quadruplex DNA in K+ buffer at 9.4 uM by UV-vis titration analysis; assay type: nucleic-acid assay

## C=Cc1nc(N)nc(NCCCCNc2c3ccccc3nc3c(C(=O)NCCCN(C)C)cccc23)n1
[1]
  solubility: Soluble
Quadruplex DNA [2]
  Activity: Active
[3]
  Activity: inactive
Quadruplex DNA [4]
  Activity: Active
dsDNA
  Activity: inactive

## CSCCc1nc(N)nc(NCCCCNc2c3ccccc3nc3c(C(=O)NCCCN(C)C)cccc23)n1
Quadruplex DNA [5]
  Activity: inactive
Quadruplex DNA [6]
  Kd: 440 nM
[7]
  Kd: 640 nM

## COc1ccc2nc3cc(Cl)ccc3c(NCCCCNc3nc(N)nc(N)n3)c2c1
[8]
  Kd: 510 nM

## C=Cc1nc(N)nc(NCCCCNc2c3ccccc3nc3c(C(=O)NCCCN(C)CCCNC(C)=O)cccc23)n1
[1]
  solubility: Soluble
Quadruplex DNA [2]
  Activity: Active
[3]
  Activity: inactive
Quadruplex DNA [4]
  Activity: Active
dsDNA
  Activity: inactive

## C=Cc1nc(N)nc(NCCCCNc2c3ccc(Cl)cc3nc3ccc(OC)cc23)n1
[1]
  solubility: Soluble
Quadruplex DNA [9]
  Activity: inactive
Quadruplex DNA [10]
  Activity: Active
Quadruplex DNA [2]
  Activity: Active
[3]
  Activity: Active
Quadruplex DNA [11]
  Activity: Active
Quadruplex DNA [12]
  Activity: Active
Quadruplex DNA [4]
  Activity: Active
Quadruplex DNA [13]
  Activity: Active
Quadruplex DNA [14]
  Activity: Active
Quadruplex DNA [15]
  Activity: inactive
Quadruplex DNA [16]
  Activity: Active
Quadruplex DNA [17]
  Activity: Active
Quadruplex DNA [18]
  Activity: Active
dsDNA
  Activity: inactive
Quadruplex DNA [19]
  Activity: Active
Quadruplex DNA [20]
  Activity: Active
Quadruplex DNA [21]
  Activity: Active
Quadruplex DNA [22]
  Activity: Active
Quadruplex DNA [23]
  ΔTm: 12.7 °C
Quadruplex DNA [24]
  Activity: Active
Quadruplex DNA [25]
  ΔTm: 5.4 °C
Quadruplex DNA [26]
  Activity: Active
Quadruplex DNA [27]
  Activity: Active

## COc1ccc2nc3cc(Cl)ccc3c(NCCCCNc3nc(N)nc(CCSC)n3)c2c1
Quadruplex DNA [28]
  Kd: 2210 nM
Quadruplex DNA [29]
  Kd: 1940 nM
Quadruplex DNA [5]
  Activity: inactive
Quadruplex DNA [6]
  Kd: 610 nM
[7]
  Kd: 1290 nM
